Measurements: US20240299328A1, “COMPOSITIONS COMPRISING 15-HEPE AND METHODS OF TREATING AND/OR PREVENTING HEMATOLOGIC DISORDERS AND RELATED DISEASES” (Afimmune Limited, priority 2023, published 2024)

Experiments:
[1] = test system: TGF-β signaling in HepG2 cells; test: TGF-β-induced EMT protein expression and type II TGF-β receptor in HepG2 cells; assay type: cell-based, human; conditions: liver cell lines (HepG2, LX2)
Experimental: The effects of 15-HEPE on TGF-β-induced signaling and cellular responses were determined. To test the effect of 15-HEPE on TGF-β-induced signaling, the activities of 15-HEPE to regulate TGF-β-stimulated Smad2 phosphorylation and nuclear translocation, both of which are key signaling events leading to TGF-β-induced cellular responses, were tested. One important biological activity of TGF-β is transcriptional activation of genes responsible for epithelial-mesenchymal transition (EMT), which is a crucial event in wound healing, tissue fibrosis, and cancer progression. The effect of 15-HEPE on TGFβ-induced epithelial mesenchymal transition related proteins (such as fibronectin, PAI-1, and N-cadherin etc.) expression in HepG2 and LXR cells were assessed. HepG2 cells (human hepatoma cell line) were treated in increasing doses of 15-HEPE stage II in DMEM containing 0.1% of FBS for 1 hour and continually stimulated with or without 200 picomolar (pM) of TGF-β for 48 hours. […] HepG2 cells (human hepatoma cell line) were treated in increasing doses of 15-HEPE stage II in DMEM containing 0.1% of FBS for 1 hour and continually stimulated with or without 200 picomolar (pM) of TGF-β for 48 hours. The two panels shown in FIG. 18A are two separate experiments run under the same experimental conditions.

[2] = test system: humanized sickle cell (SS) mice exposed to H/R stress; test: SCD (SS) mice exposed to H/R stress: lung, kidney and liver histopathology; assay type: in vivo; set-up: key to Lung thrombi / Kidney thrombi / Liver thrombi: 0: no thrombi; +: presence of thrombi per field at the magnification ×250; conditions: 1000 mg/Kg/d for 6 weeks
Experimental: Lung, kidney and liver histological analysis: Paraffin-embedded tissue blocks were cut into 2-3 μm sections and mounted on adhesion microscope glass slides for Hematoxylin-Eosin (H&E), and Perls' staining for iron content. The analysis was performed on four different fields at a magnification 200×. Tissue pathological analysis, inflammatory cell infiltrate, the presence of thrombi and iron deposition were carried out by blinded pathologists as previously described.
(§1) Score for inflammatory cell infiltrate. Quantification of inflammatory cell infiltrates was expressed as the mean of cells per field at magnification of X250, as resulting by the analysis of at least 10 different fields on each hematoxylin-eosin-stained whole lung section. Data are expressed as means±SEM; * p<0.05 compared to normoxia.
Thrombi: 0: no thrombi; +: presence of thrombi per field at the magnification ×250.
Score for inflammatory cell infiltrate. Quantification of inflammatory cell infiltration in renal cortex of kidney was determined in hematoxylin-eosin-stained sections using a 0 to 4 scale based on the percentage of cell infiltrates occupied area in each filed. 0 (no sign of infiltration); 1 (1-10% of the area with cell infiltration); 2 (11-25%); 3 (26-50%); 4 […]. The mean of 15 randomly selected field were analyzed at magnification ×400. Data are expressed as means±SEM; * p<0.05 compared to normoxia; ºp<0.05 compared to vehicle. Thrombi: 0: no thrombi; +: presence of thrombi presence of thrombi per field at the magnification ×250.
as §1, with “×250,” for “X250,”, “liver” for “lung”
Thrombi: 0: no thrombi; +: presence of thrombi presence of thrombi per field at the magnification ×250.
Statistical analysis: Non-parametric Pairwise Wilcoxon Rank Sum Tests was used.

CC/C=C\C[C@H](O)/C=C/C=C\C/C=C\C/C=C\CCCC(=O)OCC [DS102, 15(S)-hydroxy-(5Z,8Z,11Z,13E,17Z)-eicosapentaenoic acid ethyl ester]
TGF-β signaling [1]: directly inhibit
Kidney thrombi ([2]; n = 4): 0
Liver thrombi ([2]; n = 4): 0
Lung thrombi ([2]; n = 4): 0
liver iron accumulation (Perls' staining) ([2]; vs vehicle): significant reduction
thrombi formation in liver ([2]; vs vehicle): significant reduction
